Results on 23 compounds are retold here after patent US20240327412A1, “FACTOR XIIA INHIBITORS” (KALVISTA PHARMACEUTICALS LIMITED, priority 2021, published 2024).

Common to all, as to assay type: biochemical
In one test the target is T1, Human Factor XIIa (Homo sapiens, UniProt P00748).
T1 construct: Proteolytic cleavage of FXII to heavy and light chains of FXIIa dramatically increases catalytic activity; purchased Enzyme Research Laboratories
T1 sequence (P00748 373-615 limits assumed): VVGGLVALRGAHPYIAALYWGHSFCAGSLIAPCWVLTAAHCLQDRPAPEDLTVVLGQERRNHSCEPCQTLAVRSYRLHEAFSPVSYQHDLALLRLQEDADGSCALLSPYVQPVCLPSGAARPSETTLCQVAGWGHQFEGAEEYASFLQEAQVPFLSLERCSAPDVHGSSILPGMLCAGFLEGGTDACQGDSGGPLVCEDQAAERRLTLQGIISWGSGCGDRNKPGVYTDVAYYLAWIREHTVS
T1 sequence (P00748 20-372 partner limits assumed): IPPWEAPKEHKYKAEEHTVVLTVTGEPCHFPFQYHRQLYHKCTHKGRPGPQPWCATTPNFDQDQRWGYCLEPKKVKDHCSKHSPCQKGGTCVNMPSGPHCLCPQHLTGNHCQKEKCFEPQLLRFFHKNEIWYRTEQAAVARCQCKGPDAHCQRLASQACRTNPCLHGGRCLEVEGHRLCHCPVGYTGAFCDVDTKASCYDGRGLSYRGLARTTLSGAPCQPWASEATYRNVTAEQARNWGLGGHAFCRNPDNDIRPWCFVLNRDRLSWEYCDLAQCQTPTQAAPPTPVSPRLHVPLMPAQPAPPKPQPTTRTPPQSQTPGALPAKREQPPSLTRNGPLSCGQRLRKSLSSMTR
Nature of the test: Determination of FXIIa inhibition (fluorogenic substrate H-DPro-Phe-Arg-AFC, IC50 assay). As to conditions: substrate at Km concentration, 25° C.; category scale; read-out: Human FXII IC50 (nm). The essentials: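 Human FXIIa incubated at 25° C. with fluorogenic H-DPro-Phe-Arg-AFC at its Km concentration plus varying compound levels. Linear fluorescence increase over 5 min taken as % activity; IC50 is concentration halving uninhibited activity.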

In the next test the target is KLK1 (Homo sapiens, UniProt P06870). Nature of the test: Related protease inhibition: KLK1 (fluorogenic substrate at Km). As to conditions: class symbols per Table 18. How it is done: (§1) In vitro inhibition of related proteases was determined using an IC50 assay based on standard literature methods (see e.g. Shori et al., Biochem. Pharmacol., 1992, 43, 1209; Bouckaert et al., European Journal of Medicinal Chemistry 110 (2016) 181). Human serine protease enzyme Plasma Kallikrein, KLK1, FXa, Plasmin, Thrombin and Trypsin were assayed for enzymatic activity using an appropriate fluorogenic substrate at Km concentration, FXIa at fixed substrate concentration of 100 μM and various concentrations of the test compound. Protease activity was measured by monitoring the accumulation of liberated fluorescence from the substrate over 5 min at 25° C. The linear rate of fluorescence increase per minute was expressed as percentage (%) activity. IC50 values were calculated as the concentration of inhibitor giving 50% inhibition of the uninhibited enzyme activity (100%).

The target of the next test is FXa (Homo sapiens, UniProt P00742). Nature of the test: Related protease inhibition: FXa (fluorogenic substrate at Km). As to conditions: class symbols per Table 18. How it is done: as §1
A further test concerns the target T2, Plasma Kallikrein (Homo sapiens, UniProt P03952).
T2 construct: FXIIa converts plasma prekallikrein (PK) to plasma kallikrein (PKa)
Nature of the test: Related protease inhibition: Plasma Kallikrein (fluorogenic substrate at Km). As to conditions: class symbols per Table 18, read-out: IC50 (human PKal). How it is done: as §1

What is called IC50 is the midpoint of a concentration-inhibition curve.

T2 sequence (P03952 391-638 limits assumed): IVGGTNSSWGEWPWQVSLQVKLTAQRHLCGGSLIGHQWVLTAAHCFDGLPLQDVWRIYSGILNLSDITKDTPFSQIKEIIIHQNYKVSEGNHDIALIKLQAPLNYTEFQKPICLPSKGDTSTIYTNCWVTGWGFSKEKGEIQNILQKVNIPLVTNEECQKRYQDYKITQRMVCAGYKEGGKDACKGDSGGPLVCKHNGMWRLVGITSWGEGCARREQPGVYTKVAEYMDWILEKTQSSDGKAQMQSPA
T2 sequence (P03952 20-390 partner limits assumed): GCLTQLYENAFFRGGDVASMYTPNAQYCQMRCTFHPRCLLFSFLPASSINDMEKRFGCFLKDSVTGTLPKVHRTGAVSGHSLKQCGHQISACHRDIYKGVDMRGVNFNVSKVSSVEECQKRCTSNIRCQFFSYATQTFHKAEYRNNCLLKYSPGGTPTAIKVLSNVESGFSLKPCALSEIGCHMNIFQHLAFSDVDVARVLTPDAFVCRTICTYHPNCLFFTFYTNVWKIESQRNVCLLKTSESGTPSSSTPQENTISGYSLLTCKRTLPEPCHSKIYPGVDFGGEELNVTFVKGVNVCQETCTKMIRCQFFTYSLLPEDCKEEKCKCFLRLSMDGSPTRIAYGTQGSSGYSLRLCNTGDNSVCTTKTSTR
Sequence of KLK1 (P06870 25-262): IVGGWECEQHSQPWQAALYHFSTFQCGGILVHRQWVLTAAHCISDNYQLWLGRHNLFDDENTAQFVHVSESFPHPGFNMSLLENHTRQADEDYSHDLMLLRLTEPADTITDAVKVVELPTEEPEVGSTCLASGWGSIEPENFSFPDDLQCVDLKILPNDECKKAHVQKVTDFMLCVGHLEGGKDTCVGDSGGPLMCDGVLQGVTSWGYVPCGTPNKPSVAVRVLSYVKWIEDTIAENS
Sequence of FXa (P00742 235-488 limits assumed): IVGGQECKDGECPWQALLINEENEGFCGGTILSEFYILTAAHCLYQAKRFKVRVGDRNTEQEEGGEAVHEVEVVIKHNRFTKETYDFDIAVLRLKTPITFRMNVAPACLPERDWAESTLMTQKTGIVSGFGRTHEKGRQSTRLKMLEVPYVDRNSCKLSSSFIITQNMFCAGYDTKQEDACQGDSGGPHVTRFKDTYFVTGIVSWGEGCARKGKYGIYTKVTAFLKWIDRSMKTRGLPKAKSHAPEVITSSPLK
Sequence of FXa (P00742 41-179 partner limits assumed): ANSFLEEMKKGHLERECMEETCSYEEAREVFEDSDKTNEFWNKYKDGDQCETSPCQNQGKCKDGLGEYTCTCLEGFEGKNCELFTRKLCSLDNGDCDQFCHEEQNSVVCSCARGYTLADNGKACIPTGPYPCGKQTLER

Turning to `Clc1ccc2c(NCC34CC(COc5ccn6ccnc6c5)(CCO3)C4)ccnc2c1` [Example 10921, 7-chloro-N-((5-((imidazo[1,2-a]pyridin-7-yloxy)methyl)-2-oxabicyclo[3.1.1]heptan-1-yl)methyl)quinolin-4-amine], the half-maximal inhibitory concentration (IC50) at Human Factor XIIa was 40 to 100 µM; against KLK1, 10 to 40 µM.
For the compound `Nc1nccc2c(NCC34CCCC(COc5ccc6nccn6c5)(C3)C4)cccc12` [Example 10942, N5-((5-((imidazo[1,2-a]pyridin-6-yloxy)methyl)bicyclo[3.1.1]heptan-1-yl)methyl)isoquinoline-1,5-diamine], the values for the IC50 at Human Factor XIIa, on FXa and against KLK1 were 0.1 to 0.3 µM, above 40 µM and 3 to 10 µM, respectively.
Consider `c1cc(NCC23CC(COc4ccn5ccnc5c4)(C2)C3)c2cc[nH]c2n1` [Example 1009, N-((3-((imidazo[1,2-a]pyridin-7-yloxy)methyl)bicyclo[1.1.1]pentan-1-yl)methyl)-1H-pyrrolo[2,3-b]pyridin-4-amine], for which the IC50 on Human Factor XIIa is 10 to 40 µM; on Plasma Kallikrein, above 100 µM; against KLK1, above 100 µM.
With `Nc1nccc2c(NCC34CC(COc5ccc6ncc(C(F)(F)F)n6c5)(CO3)C4)cccc12` [Example 6627, N5-((4-(((3-(trifluoromethyl)imidazo[1,2-a]pyridin-6-yl)oxy)methyl)-2-oxabicyclo[2.1.1]hexan-1-yl)methyl)isoquinoline-1,5-diamine], the values for the IC50 at Human Factor XIIa and on KLK1 were 1 to 3 µM and 3 to 10 µM, respectively.
As to `Cn1ccc(OCC23CN(C(=O)OCc4ccccc4)C(CNc4ccc5c(N)nccc5c4)(C2)C3)cc1=O` [Example 12010, benzyl 1-(((1-aminoisoquinolin-6-yl)amino)methyl)-4-(((1-methyl-2-oxo-1,2-dihydropyridin-4-yl)oxy)methyl)-2-azabicyclo[2.1.1]hexane-2-carboxylate], the 50% inhibitory concentration (IC50) at Human Factor XIIa lay in the range of 0.1 to 0.3 µM; against KLK1, 0.01 to 0.1 µM.
As for `Nc1ncc(Cl)c2cc(NCC34CC(COc5ccn6ccnc6c5)(CCO3)C4)ccc12` [Example 10922, 4-chloro-N6-((5-((imidazo[1,2-a]pyridin-7-yloxy)methyl)-2-oxabicyclo[3.1.1]heptan-1-yl)methyl)isoquinoline-1,6-diamine], the IC50 at Human Factor XIIa and against KLK1 was 0.3 to 1 µM in each case.
As to `Cc1c(OCC23CCOC(CNc4cccc5c(N)nccc45)(C2)C3)ccn2ccnc12` [Example 10923, N5-((5-(((8-methylimidazo[1,2-a]pyridin-7-yl)oxy)methyl)-2-oxabicyclo[3.1.1]heptan-1-yl)methyl)isoquinoline-1,5-diamine], the values for the IC50 on Human Factor XIIa and at KLK1 were 0.1 to 0.3 µM and 0.3 to 1 µM, respectively.
Turning to `Cc1c(OCC23COC(CNc4cccc5c(N)nccc45)(C2)C3)ccc2nccn12` [Example 6626, N5-((4-(((5-methylimidazo[1,2-a]pyridin-6-yl)oxy)methyl)-2-oxabicyclo[2.1.1]hexan-1-yl)methyl)isoquinoline-1,5-diamine], the IC50 on Human Factor XIIa lay in the range of 0.01 to 0.1 µM; on KLK1, 1 to 3 µM.
For `Nc1nccc2c(NCC34CC(COc5cn6ccnc6cn5)(CO3)C4)cccc12` [Example 6616, N5-((4-((imidazo[1,2-a]pyrazin-6-yloxy)methyl)-2-oxabicyclo[2.1.1]hexan-1-yl)methyl)isoquinoline-1,5-diamine], the concentration for half-maximal inhibition (IC50) on Human Factor XIIa was 0.3 to 1 µM; against FXa, above 40 µM; at KLK1 it was 3 to 10 µM.
Take `Clc1cc2c(NCC34CC(COc5ccn6ccnc6c5)(C3)C4)ccnc2[nH]1` [Example 1010]: the results for the half-inhibitory concentration (IC50) on Human Factor XIIa, against FXa and against KLK1 were 0.3 to 1 µM, 1 to 3 µM and above 40 µM, respectively.
As to `Nc1nccc2c(N3CCC4(CC(COc5ccn6ccnc6c5)C4)C3)cccc12` (stereo not drawn) [Example 8807, 5-(cis*-2-((imidazo[1,2-a]pyridin-7-yloxy)methyl)-6-azaspiro[3.4]octan-6-yl)isoquinolin-1-amine], the values for the 50% inhibitory concentration (IC50) on Human Factor XIIa and on KLK1 were 0.3 to 1 µM and 10 to 40 µM, respectively.
On to `CN1Cc2ccc(OCC34COC(CNc5cccc6c(N)nccc56)(C3)C4)cc2C1=O` [Example 6628, 6-((1-(((1-aminoisoquinolin-5-yl)amino)methyl)-2-oxabicyclo[2.1.1]hexan-4-yl)methoxy)-2-methylisoindolin-1-one], for which the 50% inhibitory concentration (IC50) was 0.1 to 0.3 µM on Human Factor XIIa and 3 to 10 µM against KLK1.
The corresponding values for `Cc1cc2nccn2cc1OCC12COC(CNc3cccc4c(N)nccc34)(C1)C2` [Example 6622, N5-((4-(((7-methylimidazo[1,2-a]pyridin-6-yl)oxy)methyl)-2-oxabicyclo[2.1.1]hexan-1-yl)methyl)isoquinoline-1,5-diamine] are 0.01 to 0.1 µM and 1 to 3 µM.
For `Nc1nccc2c(OCC34CC(CNc5ccc6nccn6c5)(CO3)C4)cccc12` [Example 6619, 5-((4-((imidazo[1,2-a]pyridin-6-ylamino)methyl)-2-oxabicyclo[2.1.1]hexan-1-yl)methoxy)isoquinolin-1-amine], the half-maximal inhibitory concentration (IC50) fell in the range of 0.3 to 1 µM at Human Factor XIIa and 10 to 40 µM on KLK1.
Take `Nc1nccc2c(NCC34CC(COc5cc(Cl)c6nccn6c5)(CCO3)C4)cccc12` [Example 10924, N5-((5-(((8-chloroimidazo[1,2-a]pyridin-6-yl)oxy)methyl)-2-oxabicyclo[3.1.1]heptan-1-yl)methyl)isoquinoline-1,5-diamine]: the IC50 at Human Factor XIIa is 0.1 to 0.3 µM; against KLK1, 3 to 10 µM.
For the compound `Nc1nccc2c(NCC34CC(COc5ncccn5)(CCO3)C4)cccc12` [Example 10912, N5-((5-((pyrimidin-2-yloxy)methyl)-2-oxabicyclo[3.1.1]heptan-1-yl)methyl)isoquinoline-1,5-diamine], the IC50 at Human Factor XIIa was 10 to 40 µM; on Plasma Kallikrein, above 40 µM.
For the compound `Nc1nccc2c(N3CC4(CC(OCc5ccn6ccnc6c5)C4)C3)cccc12` [Example 8801, 5-(6-(imidazo[1,2-a]pyridin-7-ylmethoxy)-2-azaspiro[3.3]heptan-2-yl)isoquinolin-1-amine], the IC50 was 10 to 40 µM at Human Factor XIIa and above 40 µM at Plasma Kallikrein.
Take `Nc1nccc2c(NCC34CN(C(=O)OCc5ccccc5)C(C(=O)N5CCn6c(nnc6C(F)(F)F)C5)(C3)C4)cccc12` [Example 13002, benzyl 4-(((1-aminoisoquinolin-5-yl)amino)methyl)-1-(3-(trifluoromethyl)-5,6,7,8-tetrahydro-[1,2,4]triazolo[4,3-a]pyrazine-7-carbonyl)-2-azabicyclo[2.1.1]hexane-2-carboxylate]: the IC50 at Human Factor XIIa was 10 to 40 µM; at Plasma Kallikrein, above 40 µM.
In the case of `CC1(C)OC2(COc3cccc4c(N)nccc34)CC1(COc1ccc3nccn3c1)C2` [Example 7704, 5-((4-((imidazo[1,2-a]pyridin-6-yloxy)methyl)-3,3-dimethyl-2-oxabicyclo[2.1.1]hexan-1-yl)methoxy)isoquinolin-1-amine], the IC50 was 0.3 to 1 µM on Human Factor XIIa and above 40 µM at Plasma Kallikrein.
As to `Nc1nccc2c(NCC34CC(COC5CCn6ccnc6C5)(C3)C4)cccc12` (single isomer, unassigned) [Example 1002.2, (R*)-N5-((3-(((5,6,7,8-tetrahydroimidazo[1,2-a]pyridin-7-yl)oxy)methyl)bicyclo[1.1.1]pentan-1-yl)methyl)isoquinoline-1,5-diamine], the half-maximal inhibitory concentration (IC50) at Human Factor XIIa is 0.3 to 1 µM; on Plasma Kallikrein it was above 40 µM.
As for `Cc1cc(OCC23CCOC(CNc4cccc5c(N)nccc45)(C2)C3)cc2nccn12` [Example 10925, N5-((5-(((5-methylimidazo[1,2-a]pyridin-7-yl)oxy)methyl)-2-oxabicyclo[3.1.1]heptan-1-yl)methyl)isoquinoline-1,5-diamine], the IC50 on Human Factor XIIa is 0.01 to 0.1 µM; at KLK1, 3 to 10 µM.
Regarding `CC1(C)OC2(CNc3cccc4c(N)nccc34)CC1(COc1ccc3nccn3c1)C2` [Example 7703, N5-((4-((imidazo[1,2-a]pyridin-6-yloxy)methyl)-3,3-dimethyl-2-oxabicyclo[2.1.1]hexan-1-yl)methyl)isoquinoline-1,5-diamine], the IC50 is 0.1 to 0.3 µM on Human Factor XIIa and above 40 µM at Plasma Kallikrein.
On to `Nc1nccc2c(OCC34CC(COc5ccn6ccnc6c5)(C3)C4)cccc12` [Example 1013, 5-[[3-(Imidazo[1,2-a]pyridin-7-yloxymethyl)-1-bicyclo[1.1.1]pentanyl]methoxy]isoquinolin-1-amine], for which the IC50 on Human Factor XIIa was 0.3 to 1 µM; at Plasma Kallikrein, above 40 µM.
